Measured values taken from PMC10009755, “Discovery and Characterization of BAY-805, a Potent and Selective Inhibitor of Ubiquitin-Specific Protease USP21” (Journal of Medicinal Chemistry, 2023).
pIC50, pKd: −log10 of the molar value. Read-outs that look alike come from different tables or passages of the source.

Tests used:
[1] = target: T1, USP21 (Homo sapiens, UniProt Q9UK80); experiment: Ubiquitin aminoluciferin (Ub-AML) assay; assay type: biochemical; parameters: […]; ZZ tag; made in house
T1 sequence (Q9UK80 1-565): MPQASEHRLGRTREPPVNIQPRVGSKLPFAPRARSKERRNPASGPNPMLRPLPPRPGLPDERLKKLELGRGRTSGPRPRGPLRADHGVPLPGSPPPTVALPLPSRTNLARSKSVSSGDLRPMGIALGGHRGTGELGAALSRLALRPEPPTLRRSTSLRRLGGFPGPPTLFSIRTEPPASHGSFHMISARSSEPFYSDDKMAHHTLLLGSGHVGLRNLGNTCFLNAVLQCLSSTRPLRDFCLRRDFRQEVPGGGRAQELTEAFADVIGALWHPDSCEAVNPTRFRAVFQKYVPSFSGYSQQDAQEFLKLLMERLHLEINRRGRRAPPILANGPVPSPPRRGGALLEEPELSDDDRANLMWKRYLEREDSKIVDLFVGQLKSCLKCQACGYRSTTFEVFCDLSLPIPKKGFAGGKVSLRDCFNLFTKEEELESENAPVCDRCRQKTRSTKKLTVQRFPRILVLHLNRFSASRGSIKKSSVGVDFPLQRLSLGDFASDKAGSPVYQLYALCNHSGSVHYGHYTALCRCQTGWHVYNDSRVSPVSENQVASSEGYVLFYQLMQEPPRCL
Procedure: The final assay volume was 8 μL. […] The reaction was stopped with 2 μL of 200 μM PR619. Then, 2 μL of luciferin detection reagent (Promega V8920/1) was used to detect luciferin at a final concentration of 0.5-fold. For the luminescence detection, 1536-well plates (Greiner, white) were measured on the ViewLux at 120 s exposure time.

[2] = target: T2, USP2 (Homo sapiens, UniProt O75604); experiment: hUSP2 Ub-rhodamine 110 assay; assay type: biochemical; conditions: arithmetic means of multiple measurements; read-out: IC50 hUSP2 Ub-Rhod
T2 construct: His tag
T2 sequence (O75604 259-605): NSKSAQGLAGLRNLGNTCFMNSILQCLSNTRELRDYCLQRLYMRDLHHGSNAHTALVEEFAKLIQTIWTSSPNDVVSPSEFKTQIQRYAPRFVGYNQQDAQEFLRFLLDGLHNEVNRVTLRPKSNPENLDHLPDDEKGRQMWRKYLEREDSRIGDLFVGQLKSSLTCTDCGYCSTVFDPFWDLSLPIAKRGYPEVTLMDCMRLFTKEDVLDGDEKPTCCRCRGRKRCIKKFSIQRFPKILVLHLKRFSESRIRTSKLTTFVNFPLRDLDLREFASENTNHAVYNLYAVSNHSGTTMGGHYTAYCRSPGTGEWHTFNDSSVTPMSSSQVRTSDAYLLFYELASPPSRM
Procedure: The final assay volume was 6 μL.

[3] = target: T1, USP21; experiment: Thermal shift assay (TSA); assay type: binding; parameters: purchased Ubiquigent (DUBprofiler service); conditions: 100 μM compound
Procedure: Experiments were carried out with the QuantStudio7 Flex Real-Time PCR system (Thermo Fisher Scientific) in a 384-well plate format with 5 μL of reaction volume. Melting curves were obtained at an USP21 protein concentration of 3.8 μM and 5xSYPRO Orange (Invitrogen) using a buffer containing 20 mM Tris, pH 7.5; 150 mM NaCl; 10% glycerol; and 1.0 mM TCEP. […] For binding experiments, compounds were added from 10 mM stock solution to a final concentration of 100 μM. As a control, 1% DMSO was used. Scans were measured from 25 to 95 °C at a scanning rate of 4 °C/min. All TSA data were analyzed using a Genedata Assay Analyzer.

[4] = target: T3, USP7 (Homo sapiens, UniProt Q93009); experiment: Thermal shift assay (TSA); assay type: binding; conditions: 100 μM compound
T3 construct: purchased Ubiquigent (DUBprofiler service)

[5] = target: T4, USP21 (Homo sapiens, UniProt Q9UK80); experiment: SPR binding; conditions: equilibrium binding, 15 °C
T4 construct: made in house; host or cells: E. coli BL21(DE3)

[6] = tested on: panel of 10 individual USPs; experiment: SGC USP selectivity screen, whole panel; assay type: biochemical; conditions: 10 and 50 μM
[7] = target: T1, USP21
[8] = log D measurement (HPLC); assay type: physicochemical; conditions: reverse-phase HPLC, pH 7.5, pH 7.5, HPLC method; read-out: logD7.5
Procedure: log D values at pH 7.5 were recorded using an indirect method for determining hydrophobicity constants by reverse-phase HPLC. A series of compounds with well-known log D values were used for calibration. Test compounds were injected into the same HPLC system. The lipophilicity of compounds was then assessed by comparison to the calibration curve.

[9] = target: T2, USP2; experiment: Thermal shift assay (TSA); assay type: binding; conditions: 100 μM compound
[10] = target: T1, USP21; remark: listed apart in the source
[11] = target: T5, Adrenergic α2A (Homo sapiens, UniProt P08913); experiment: Eurofins Panlabs safety screen; assay type: binding
T5 construct: Eurofins Panlabs

[12] = target: Cannabinoid CB2 (Homo sapiens, UniProt P34972); experiment: Eurofins Panlabs safety screen; assay type: binding
[13] = target: Dopamine D2S (Homo sapiens, UniProt P14416); experiment: Eurofins Panlabs safety screen; assay type: binding
[14] = target: T6, Serotonin (5-Hydroxytryptamine) 5-HT2B (Homo sapiens, UniProt P41595); experiment: Eurofins Panlabs safety screen; assay type: binding
T6 construct: Eurofins Panlabs

[15] = target: Dopamine D1 (Homo sapiens, UniProt P21728); experiment: Eurofins Panlabs safety screen; assay type: binding
[16] = target: Androgen (Testosterone) (Homo sapiens, UniProt P10275); experiment: Eurofins Panlabs safety screen; assay type: binding
[17] = target: T7, Nicotinic Acetylcholine α3β4 (Homo sapiens, UniProt P30926+P32297); experiment: Eurofins Panlabs safety screen; assay type: binding
T7 construct: Eurofins Panlabs

[18] = target: T8, Fms(h) (Homo sapiens, UniProt P07333); experiment: Eurofins kinase panel; assay type: biochemical
T8 construct: purchased Eurofins (formerly Millipore/Upstate) KinaseProfiler

[19] = target: Dopamine D3 (Homo sapiens, UniProt P35462); experiment: Eurofins Panlabs safety screen; assay type: binding
[20] = target: T9, Opiate μ (OP3, MOP) (Homo sapiens, UniProt P35372); experiment: Eurofins Panlabs safety screen; assay type: binding
T9 construct: Eurofins Panlabs

[21] = target: T10, Serotonin (5-Hydroxytryptamine) 5-HT2C (Homo sapiens, UniProt P28335); experiment: Eurofins Panlabs safety screen; assay type: binding
T10 construct: Eurofins Panlabs

[22] = target: T11, Adrenergic α2B (Homo sapiens, UniProt P18089); experiment: Eurofins Panlabs safety screen; assay type: binding
T11 construct: Eurofins Panlabs

[23] = target: T12, Serotonin (5-Hydroxytryptamine) 5-HT2A (Homo sapiens, UniProt P28223); experiment: Eurofins Panlabs safety screen; assay type: binding
T12 construct: Eurofins Panlabs

[24] = target: Dopamine D2L (Homo sapiens, UniProt P14416); experiment: Eurofins Panlabs safety screen; assay type: binding
[25] = target: T13, Adrenergic α1A (Homo sapiens, UniProt P35348); experiment: Eurofins Panlabs safety screen; assay type: binding
T13 construct: Eurofins Panlabs

[26] = target: T14, Muscarinic M1 (Homo sapiens, UniProt P11229); experiment: Eurofins Panlabs safety screen; assay type: binding
T14 construct: Eurofins Panlabs

[27] = target: T15, Cholinesterase, Acetyl, ACES (Homo sapiens, UniProt P22303); experiment: Eurofins Panlabs safety screen; assay type: biochemical
T15 construct: Eurofins Panlabs

[28] = target: Cannabinoid CB1 (Homo sapiens, UniProt P21554); experiment: Eurofins Panlabs safety screen; assay type: binding
[29] = target: T16, Muscarinic M2 (Homo sapiens, UniProt P08172); experiment: Eurofins Panlabs safety screen; assay type: binding
T16 construct: Eurofins Panlabs

[30] = target: T17, PRP4(h) (Homo sapiens, UniProt Q13523); experiment: Eurofins kinase panel; assay type: biochemical
T17 construct: purchased Eurofins (formerly Millipore/Upstate) KinaseProfiler

[31] = target: T18, Adrenergic α2C (Homo sapiens, UniProt P18825); experiment: Eurofins Panlabs safety screen; assay type: binding
T18 construct: Eurofins Panlabs

[32] = target: T19, Serotonin (5-Hydroxytryptamine) 5-HT1A (Homo sapiens, UniProt P08908); experiment: Eurofins Panlabs safety screen; assay type: binding
T19 construct: Eurofins Panlabs

[33] = target: T20, Muscarinic M4 (Homo sapiens, UniProt P08173); experiment: Eurofins Panlabs safety screen; assay type: binding
T20 construct: Eurofins Panlabs

[34] = target: T21, Opiate κ (OP2, KOP) (Homo sapiens, UniProt P41145); experiment: Eurofins Panlabs safety screen; assay type: binding
T21 construct: Eurofins Panlabs

[35] = target: T22, Muscarinic M3 (Homo sapiens, UniProt P20309); experiment: Eurofins Panlabs safety screen; assay type: binding
T22 construct: Eurofins Panlabs

[36] = target: T23, Opiate δ1 (OP1, DOP) (Homo sapiens, UniProt P41143); experiment: Eurofins Panlabs safety screen; assay type: binding
T23 construct: Eurofins Panlabs

T15 sequence (P22303 32-614): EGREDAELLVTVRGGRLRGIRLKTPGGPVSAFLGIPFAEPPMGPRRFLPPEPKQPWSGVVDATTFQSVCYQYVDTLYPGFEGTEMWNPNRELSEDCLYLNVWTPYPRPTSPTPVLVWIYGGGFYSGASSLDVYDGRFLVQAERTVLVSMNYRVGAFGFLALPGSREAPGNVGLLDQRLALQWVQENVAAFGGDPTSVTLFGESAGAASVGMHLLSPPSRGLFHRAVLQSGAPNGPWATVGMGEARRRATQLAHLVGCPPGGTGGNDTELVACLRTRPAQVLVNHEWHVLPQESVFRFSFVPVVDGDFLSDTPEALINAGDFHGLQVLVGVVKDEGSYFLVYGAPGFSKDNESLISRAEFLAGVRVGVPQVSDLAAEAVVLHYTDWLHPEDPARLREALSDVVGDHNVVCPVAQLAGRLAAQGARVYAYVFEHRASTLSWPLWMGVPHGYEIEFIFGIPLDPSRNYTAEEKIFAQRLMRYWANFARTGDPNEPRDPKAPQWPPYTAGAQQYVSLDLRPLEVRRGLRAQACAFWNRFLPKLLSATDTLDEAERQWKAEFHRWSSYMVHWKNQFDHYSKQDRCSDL
Chain of Dopamine D3 (P35462 whole entry): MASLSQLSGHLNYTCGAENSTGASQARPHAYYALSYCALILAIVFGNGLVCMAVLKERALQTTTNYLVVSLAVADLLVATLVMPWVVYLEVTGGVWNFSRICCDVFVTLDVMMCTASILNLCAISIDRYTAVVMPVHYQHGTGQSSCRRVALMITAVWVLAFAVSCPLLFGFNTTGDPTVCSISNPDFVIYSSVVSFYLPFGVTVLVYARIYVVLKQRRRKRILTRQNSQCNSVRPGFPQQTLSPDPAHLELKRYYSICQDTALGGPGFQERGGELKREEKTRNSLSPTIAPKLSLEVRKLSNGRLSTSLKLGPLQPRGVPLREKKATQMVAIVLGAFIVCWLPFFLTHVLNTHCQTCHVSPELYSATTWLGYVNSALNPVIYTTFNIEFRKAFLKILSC
T18 sequence (P18825 whole entry): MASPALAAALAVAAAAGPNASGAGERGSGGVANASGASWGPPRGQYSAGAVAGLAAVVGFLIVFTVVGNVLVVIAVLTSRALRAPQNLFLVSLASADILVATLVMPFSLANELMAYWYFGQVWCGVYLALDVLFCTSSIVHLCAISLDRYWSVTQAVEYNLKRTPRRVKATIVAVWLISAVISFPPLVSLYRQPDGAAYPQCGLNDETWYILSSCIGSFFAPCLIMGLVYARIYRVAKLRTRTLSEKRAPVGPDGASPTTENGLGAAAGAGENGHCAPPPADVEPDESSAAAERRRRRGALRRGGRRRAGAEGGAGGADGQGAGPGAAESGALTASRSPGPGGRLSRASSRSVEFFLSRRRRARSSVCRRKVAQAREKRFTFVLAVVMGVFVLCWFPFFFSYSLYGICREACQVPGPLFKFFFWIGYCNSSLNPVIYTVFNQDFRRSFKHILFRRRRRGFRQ
T3 sequence (Q93009 whole entry): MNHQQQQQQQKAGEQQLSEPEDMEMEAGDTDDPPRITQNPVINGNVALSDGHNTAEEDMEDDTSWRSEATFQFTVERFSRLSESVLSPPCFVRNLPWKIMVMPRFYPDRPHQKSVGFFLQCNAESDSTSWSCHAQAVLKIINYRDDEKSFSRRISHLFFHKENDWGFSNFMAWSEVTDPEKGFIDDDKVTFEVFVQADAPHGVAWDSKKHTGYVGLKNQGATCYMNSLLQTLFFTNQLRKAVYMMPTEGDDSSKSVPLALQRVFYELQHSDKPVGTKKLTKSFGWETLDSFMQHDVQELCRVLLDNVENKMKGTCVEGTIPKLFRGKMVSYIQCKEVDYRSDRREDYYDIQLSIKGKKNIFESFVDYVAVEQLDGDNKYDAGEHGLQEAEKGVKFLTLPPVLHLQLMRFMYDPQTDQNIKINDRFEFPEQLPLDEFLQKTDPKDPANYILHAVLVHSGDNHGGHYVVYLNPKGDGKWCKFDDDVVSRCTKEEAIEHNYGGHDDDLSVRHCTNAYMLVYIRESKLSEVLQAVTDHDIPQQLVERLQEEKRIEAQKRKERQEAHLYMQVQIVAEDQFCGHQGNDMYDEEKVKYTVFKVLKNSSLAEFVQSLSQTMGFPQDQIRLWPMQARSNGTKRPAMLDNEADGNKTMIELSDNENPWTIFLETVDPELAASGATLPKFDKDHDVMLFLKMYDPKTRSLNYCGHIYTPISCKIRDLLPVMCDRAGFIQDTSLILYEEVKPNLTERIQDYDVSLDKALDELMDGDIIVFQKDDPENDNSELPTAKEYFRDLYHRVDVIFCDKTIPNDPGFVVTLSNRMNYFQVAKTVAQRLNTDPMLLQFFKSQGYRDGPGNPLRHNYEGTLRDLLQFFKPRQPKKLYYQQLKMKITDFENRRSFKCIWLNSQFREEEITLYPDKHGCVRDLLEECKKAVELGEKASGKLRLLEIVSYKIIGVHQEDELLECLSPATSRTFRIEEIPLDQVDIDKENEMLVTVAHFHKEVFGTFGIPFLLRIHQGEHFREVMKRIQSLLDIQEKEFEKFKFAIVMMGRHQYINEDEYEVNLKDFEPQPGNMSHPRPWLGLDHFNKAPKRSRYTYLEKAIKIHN
T6 sequence (P41595 whole entry): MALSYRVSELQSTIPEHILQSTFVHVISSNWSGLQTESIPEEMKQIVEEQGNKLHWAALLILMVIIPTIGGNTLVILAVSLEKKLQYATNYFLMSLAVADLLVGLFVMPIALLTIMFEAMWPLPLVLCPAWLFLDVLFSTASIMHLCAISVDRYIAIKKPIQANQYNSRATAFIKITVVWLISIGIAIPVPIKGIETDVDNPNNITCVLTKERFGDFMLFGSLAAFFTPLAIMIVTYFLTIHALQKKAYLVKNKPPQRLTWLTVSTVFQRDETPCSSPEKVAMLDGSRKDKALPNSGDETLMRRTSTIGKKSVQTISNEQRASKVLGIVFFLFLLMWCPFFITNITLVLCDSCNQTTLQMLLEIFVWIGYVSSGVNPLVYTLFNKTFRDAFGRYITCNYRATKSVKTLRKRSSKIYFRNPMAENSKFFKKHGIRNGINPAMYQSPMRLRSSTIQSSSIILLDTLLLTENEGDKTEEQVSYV
T21 sequence (P41145 whole entry): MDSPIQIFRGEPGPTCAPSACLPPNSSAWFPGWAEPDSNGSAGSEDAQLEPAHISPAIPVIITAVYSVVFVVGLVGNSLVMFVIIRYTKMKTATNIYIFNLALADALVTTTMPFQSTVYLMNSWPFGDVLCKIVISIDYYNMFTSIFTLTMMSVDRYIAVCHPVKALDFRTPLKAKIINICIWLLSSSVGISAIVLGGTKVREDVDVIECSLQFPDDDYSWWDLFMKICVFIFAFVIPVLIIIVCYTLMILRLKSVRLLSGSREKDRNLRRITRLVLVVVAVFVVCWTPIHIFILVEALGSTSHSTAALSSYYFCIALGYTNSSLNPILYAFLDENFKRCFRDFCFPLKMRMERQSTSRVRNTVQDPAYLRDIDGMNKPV
T13 sequence (P35348 whole entry): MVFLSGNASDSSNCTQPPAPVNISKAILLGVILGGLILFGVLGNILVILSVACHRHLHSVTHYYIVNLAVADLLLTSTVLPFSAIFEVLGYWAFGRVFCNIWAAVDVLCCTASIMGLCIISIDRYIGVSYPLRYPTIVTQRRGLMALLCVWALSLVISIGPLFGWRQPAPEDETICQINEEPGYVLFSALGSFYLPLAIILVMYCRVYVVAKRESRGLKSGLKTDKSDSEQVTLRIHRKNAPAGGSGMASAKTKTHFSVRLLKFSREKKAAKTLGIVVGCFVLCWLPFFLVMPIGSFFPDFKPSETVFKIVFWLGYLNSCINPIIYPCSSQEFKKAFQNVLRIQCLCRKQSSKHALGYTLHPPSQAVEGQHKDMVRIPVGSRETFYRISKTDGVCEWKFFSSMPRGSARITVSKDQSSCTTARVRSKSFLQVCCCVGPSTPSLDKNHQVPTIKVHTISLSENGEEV
T19 sequence (P08908 whole entry): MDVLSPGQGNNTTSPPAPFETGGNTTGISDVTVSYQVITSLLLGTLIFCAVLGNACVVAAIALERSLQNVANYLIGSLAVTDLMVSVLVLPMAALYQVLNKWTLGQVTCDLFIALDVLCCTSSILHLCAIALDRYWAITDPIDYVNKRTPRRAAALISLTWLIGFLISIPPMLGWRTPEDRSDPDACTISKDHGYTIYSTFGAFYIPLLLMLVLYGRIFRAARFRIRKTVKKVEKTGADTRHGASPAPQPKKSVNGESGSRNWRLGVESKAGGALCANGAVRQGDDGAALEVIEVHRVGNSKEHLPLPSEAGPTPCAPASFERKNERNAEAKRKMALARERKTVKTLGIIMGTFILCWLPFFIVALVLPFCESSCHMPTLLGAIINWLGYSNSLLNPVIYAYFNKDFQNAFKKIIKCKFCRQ
T16 sequence (P08172 whole entry): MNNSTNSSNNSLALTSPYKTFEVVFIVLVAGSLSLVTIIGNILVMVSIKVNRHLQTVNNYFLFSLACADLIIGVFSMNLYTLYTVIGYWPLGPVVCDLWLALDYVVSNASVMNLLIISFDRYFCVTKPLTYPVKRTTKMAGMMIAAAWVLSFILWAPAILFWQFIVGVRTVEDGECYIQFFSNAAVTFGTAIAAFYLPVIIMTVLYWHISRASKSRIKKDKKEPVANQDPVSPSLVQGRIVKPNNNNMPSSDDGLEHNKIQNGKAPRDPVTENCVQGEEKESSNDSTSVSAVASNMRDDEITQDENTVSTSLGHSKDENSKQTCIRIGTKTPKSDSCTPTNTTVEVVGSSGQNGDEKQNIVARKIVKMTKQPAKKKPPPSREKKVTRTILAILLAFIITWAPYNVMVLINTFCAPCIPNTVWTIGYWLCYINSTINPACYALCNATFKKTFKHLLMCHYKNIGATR

## CC(NC(=O)C1CCCC1)C(=O)Nc1nnc(Cc2ccc([N+](=O)[O-])cc2)s1 (stereo not shown) [Compound 1, CC(NC(=O)C1CCCC1)C(=O)Nc2nnc(Cc3ccc(cc3)[N+](=O)[O-])s2]
[1]
  pIC50: < 4.65
[2]
  pIC50: < 4.60
[3]
  ΔTm at 100 µM: 4.9 °C
[4]
  ΔTm at 100 µM: 0 °C
[5]
  pKd: 5.10
[6]
  inhibition of other tested DUB targets besides USP21: ≤ 50%
[7]
  pIC50: 4.93
[8]
  chromatographic logD: 2.3
[9]
  ΔTm at 100 µM: 0 °C
[10]
  pIC50: < 4.65

## CC(C)C[C@H](NC(=O)C1(C(F)(F)F)CCCCC1)C(=O)Nc1nnc(Cc2ccc(C#N)cc2)s1 [Compound 22, CC(C)C[C@H](NC(=O)C1(CCCCC1)C(F)(F)F)C(=O)Nc2nnc(Cc3ccc(cc3)C#N)s2]
[11]
  inhibition at 10 µM: 13%
[12]
  inhibition at 10 µM: 4%
[13]
  inhibition at 10 µM: 25%
[14]
  inhibition at 10 µM: 2%
[15]
  inhibition at 10 µM: 2%
[16]
  inhibition at 10 µM: 7%
[17]
  inhibition at 10 µM: -1%
[18]
  inhibition at 10 µM: 0.62%
[19]
  inhibition at 10 µM: 2%
[20]
  inhibition at 10 µM: -3%
[21]
  inhibition at 10 µM: 14%
[22]
  inhibition at 10 µM: 1%
[23]
  inhibition at 10 µM: 2%
[24]
  inhibition at 10 µM: 17%
[25]
  inhibition at 10 µM: 13%
[26]
  inhibition at 10 µM: 36%
[27]
  pIC50: 5.16
  inhibition at 10 µM: 75%
[27]; IC50 determination, 0.1 µM
  inhibition at 0.1 µM: 18%
[27]; IC50 determination, 0.3 µM
  inhibition at 0.3 µM: 4%
[27]; IC50 determination, 1 µM
  inhibition at 1 µM: 19%
[27]; IC50 determination, 3 µM
  inhibition at 3 µM: 8%
[27]; IC50 determination
  inhibition at 10 µM: 76%
[27]; IC50 determination, 30 µM
  inhibition at 30 µM: 78%
[28]
  inhibition at 10 µM: 3%
[29]
  inhibition at 10 µM: 24%
[30]
  inhibition at 10 µM: -7.38%
[31]
  inhibition at 10 µM: 12%
[32]
  inhibition at 10 µM: 5%
[33]
  inhibition at 10 µM: -8%
[34]
  inhibition at 10 µM: 12%
[35]
  inhibition at 10 µM: 4%
[36]
  inhibition at 10 µM: 5%
